Test results: patent US20060286561A1, “PROPARGYLETHOXYAMINO NUCLEOTIDES” (Applera Corporation; Applied Biosystems Group, priority 1996, published 2006)

Experiments:
Assay type in all cases: biochemical
[1] = target: AmpliTaq FS Polymerase (mutant form of Taq DNA polymerase) (Thermus aquaticus, UniProt P19821, F667Y/G46D); assay: Single-Nucleotide Incorporation Assay for relative enzyme selectivity; details: for ddCTP/(Dye)-ddCTP (ratio of incorporation rates, preference for unlabeled ddCTP): ddCTP and dye-ddCTP each 200 μM, 8 nM enzyme, 60° C., corrected for energy transfer
AmpliTaq FS Polymerase (mutant form of Taq DNA polymerase), sequence (P19821 whole entry G46D/F667Y): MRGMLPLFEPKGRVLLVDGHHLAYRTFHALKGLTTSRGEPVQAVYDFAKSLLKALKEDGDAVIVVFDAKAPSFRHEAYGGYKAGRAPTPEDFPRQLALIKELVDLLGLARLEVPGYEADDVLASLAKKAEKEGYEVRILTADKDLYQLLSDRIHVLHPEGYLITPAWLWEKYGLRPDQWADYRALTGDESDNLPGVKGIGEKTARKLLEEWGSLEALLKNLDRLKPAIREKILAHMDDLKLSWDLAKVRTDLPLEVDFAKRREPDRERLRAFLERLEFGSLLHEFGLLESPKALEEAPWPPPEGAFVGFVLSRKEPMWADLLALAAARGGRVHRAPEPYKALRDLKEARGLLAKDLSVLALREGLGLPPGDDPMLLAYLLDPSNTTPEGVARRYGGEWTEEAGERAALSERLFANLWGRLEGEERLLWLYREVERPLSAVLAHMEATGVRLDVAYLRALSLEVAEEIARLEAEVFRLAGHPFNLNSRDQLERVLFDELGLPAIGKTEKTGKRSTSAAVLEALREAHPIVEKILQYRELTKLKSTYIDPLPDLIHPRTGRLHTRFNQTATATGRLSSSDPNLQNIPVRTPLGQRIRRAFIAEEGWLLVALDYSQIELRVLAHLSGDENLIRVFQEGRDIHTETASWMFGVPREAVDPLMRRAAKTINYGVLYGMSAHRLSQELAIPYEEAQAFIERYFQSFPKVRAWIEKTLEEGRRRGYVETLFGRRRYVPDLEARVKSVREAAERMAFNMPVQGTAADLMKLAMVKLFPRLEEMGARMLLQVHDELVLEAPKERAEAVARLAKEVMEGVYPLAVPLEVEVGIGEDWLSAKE
Text: In the assay, an unlabeled terminator and its cognate dye-labeled terminator are present in equal concentrations and allowed to compete for the same polymerase-substrate binding site under enzyme limited (steady-state) conditions.
With reference to FIG. 3, the components of the assay include a 36 nucleotide template (5); a 25 nucleotide primer (10) having a sequence complementary to the template and a first fluorescent label at the 5′-end (15); an unlabeled terminator (20); a dye-labeled terminator (25) having a second fluorescent label attached thereto (30) which is spectrally resolvable from the first fluorescent label; and a polymerase enzyme. In the present example, the unlabeled terminator was 2′,3′-ddCTP and the dye-labeled terminator was 6-(FAM)-ddCTP where different linker arms were used to attach the dye to the nucleotide. The template DNA contained a single G (35) at the template position following the end of the primer.
Products (40) and (45) were detected by resolving them electrophoretically and detecting the resulting bands using an ABI PRISM™ 373 DNA Sequencer (PE Applied Biosystems). A typical banding pattern consisted of a 25-mer band corresponding to the labeled primer (10), a 26-mer band corresponding to the product (40) and an “apparent 27-mer” which corresponded to product (45). The apparent extra base seen in product (45) is a result of the effect of the dye-labeled terminator on the electrophoretic mobility of the fragment. By taking samples from a reaction mixture and measuring the relative amounts of DNA in the 25-mer, 26-mer, and apparent 27-mer bands as a function of time, it was possible to measure the relative incorporation rates of the unlabeled and dye-labeled terminators in the reaction. […] In this manner, it was possible to measure the effect of linker structure on dye-terminator incorporation.
For the case of product (45), it is necessary to correct the fluorescence signal for fluorescence energy transfer which takes place between the first fluorescent label (15) located at the 5′-end of product (45), TAMRA in this example, and the second fluorescent label (30) located on the terminator positioned at the 3′-end of product (45), FAM in this example. Under the conditions used for detection, the presence of the 3′-FAM label serves to enhance the signal resulting from the TAMRA label. The energy-transfer correction is accomplished by synthesizing a doubly labeled internal standard molecule having the same structure as product (45), preparing a control sample containing equal moles of the 5′-TAMRA labeled primer (10) and the doubly labeled internal standard molecule, and running the control sample in a control lane on the same gel as assay products (40) and (45). Any difference in TAMRA fluorescence between the primer (10) and the doubly labeled internal standard is a quantitative measure of the extent of energy transfer between the dye moieties in the assay product (45). […] This measurement was used to correct the TAMRA fluorescence from the product (45) in each of the test sample lanes.
(The numbers in parenthesis next to certain components refer to elements in FIG. 3.)
The assay reactions were prepared as follows. Two 2×-concentrated “Half Reaction Mixtures” were prepared and held on ice. A first solution, the “2× Enz·DNA” mixture, comprised […] template/primer DNA and […] AmpliTaq FS in 80 mM TRIS buffer. A second solution, the “2× Mg·Nuc” mixture, comprised 80 mM TRIS buffer plus 4.8 mM MgCl2 and each of the nucleotides at 400 μM. A “Zero Time Control” sample was prepared by adding 1 μl of the 2× Enz-DNA mixture to 25 μl of “STOP Solution” (0.5 M EDTA, […]), and, after mixing, adding 1 μl of the 2× Mg·Nuc mixture. The Zero Time Control sample was held on ice until the remainder of the timed samples were also collected for further processing. […]

[2] = target: T1, AmpliTaq DNA Polymerase, FS (Thermus aquaticus, UniProt P19821, F667Y/G46D); assay: Terminator Titration Assay (dye-terminator cycle sequencing reaction); details: for mean peak height / relative error of peak height (standard deviation / mean): FIG. 2, at optimal terminator concentration; for relative error of peak height (standard deviation / mean): lower = more even peak heights; for optimal concentration of terminator: FIG. 2, sequencing pattern comparison
T1 construct: purchased PE Applied Biosystems p/n 402117
T1 sequence (P19821 whole entry G46D/F667Y): as above

[3] = target: T1, AmpliTaq DNA Polymerase, FS; assay: as above; details: for Relative Molar Excess Terminator Required: to form a full sequencing ladder
Text: The Terminator Titration Assay was used to determine the minimum amount of dye terminator required to create a full sequencing ladder, i.e., a sequencing ladder including all fragments terminating in a particular base having a length of between about 20 to about 600 nucleotides. The key components of the assay were (i) a primer labeled with a first dye, and (i) a terminator labeled with a second dye spectrally resolvable from the first dye. In the assay, when an insufficient concentration of dye terminator was added to the sequencing reaction, no dideoxy-terminated fragments were formed, and all that was seen on the sequencing gel were products formed by “false stops” that were labeled with the first dye only. As used herein the term “false stops” refer to primer extension products not terminating in a dideoxy terminator, such products probably being formed when the polymerase enzyme spontaneously disengages with the template strand. When too much terminator was used, only short termination products were formed, i.e., less than about 50 nucleotides in length, such products including both the first and second dyes. When the proper amount of terminator was used, a full sequencing ladder was produced, each fragment of the ladder being labeled with both the first and second dyes.
The dye-terminator reactions were performed using AmpliTaq DNA Polymerase, FS following protocols provided in the ABI PRISM™ Dye Terminator Cycle Sequencing Core Kit Manual (PE Applied Biosystems p/n 402116). (The FS enzyme is a recombinant Thermus aquaticus DNA polymerase having two point mutations--G46D and F667Y). All reagents except the dNTP mix, dye labeled primers, and dye-labeled terminators were from an ABI PRISM™ Dye Terminator Core Kit (PE Applied Biosystems p/n 402117). The dNTP mix consisted of 2 mM each of dATP, dCTP, dGTP and dTTP. A premix of reaction components was prepared as shown in the following table wherein all quantities are given on a per reaction basis:
Reactions were assembled in 0.5 ml tubes adapted for the Perkin-Elmer 480 DNA Thermal Cycler (PE Applied Biosystems p/n N801-100). Reaction volumes were 20 μL, including 15 μL, of the above reaction premix, a variable amount of dye labeled terminator, and a sufficient volume of water to bring the total reaction volume up to 20 μL. From 1 to 1000 pmol of the dye terminator was added to each reaction. 30 μL of mineral oil was added to the top of each reaction to prevent evaporation. Reactions were thermocycled as follows: 96° C. for 30 sec, 50° C. for 15 sec, and 60° C. for 4 min, for 25 cycles; followed by a 4° C. hold cycle.
All reactions were purified by spin-column purification on Centri-Sep spin columns according to manufacturer's instructions (Princeton Separations p/n CS-901). Gel material in the column was hydrated with 0.8 mL deionized water for at least 30 minutes at room temperature. After the column was hydrated and it was determined that no bubbles were trapped in the gel material, the upper and lower end caps of the column were removed, and the column was allowed to drain by gravity. The column was then inserted into the wash tubes provided in the kit and centrifuged in a variable speed microcentrifuge at 1300×g for 2 minutes, removed from the wash tube, and inserted into a sample collection tube. The reaction mixture was carefully removed from under the oil and loaded onto the gel material. Columns were centrifuged in a variable speed microcentrifuge at 1300×g for 2 minutes. Eluted samples were then dried in a vacuum centrifuge.
Prior to loading onto a sequencing gel, the dried samples were resuspended in 25 μL of Template Suppression Reagent (PE Applied Biosystems p/n 401674), vortexed, heated to 95° C. for 2 minutes, cooled on ice, vortexed again, and centrifuged (13,000×g). 10 μL of the resuspended sample was aliquoted into sample vials (PE Applied Biosystems p/n 401957) adapted for the PE ABI PRISM™ 310 Genetic Analyzer (PE Applied Biosystems p/n 310-00-100/120). […]

[4] = C-terminator linked to 6-FAM dye, unlabeled dideoxy terminator = 1
[5] = C-terminator, various combinations of dyes and linkers, unlabeled terminator = 1

SMILES | ddCTP/(Dye)-ddCTP (ratio of incorporation rates, preference for unlabeled ddCTP) [1] | ddCTP/(Dye)-ddCTP (ratio of incorporation rates, preference for unlabeled ddCTP) ([1]; listed as FAM-ddCTP (propargyl-1-ethoxyamido linker)) | mean peak height [2] | relative error of peak height (standard deviation / mean) [2] | optimal concentration of terminator [2] | reduced molar excess as compared with terminators employing the propargylamido linker ([3]; C-terminator) | reduced molar excess as compared with terminators employing a propargyl-2-ethoxyamido linker ([3]; C-terminator linked to 6-FAM) | Relative Molar Excess Terminator Required [3, 4] | Relative Molar Excess Terminator Required [3, 5] | increase of bias against dye-ddCTP versus propargylamido linker ([1]; FAM-ddCTP, from 65× to 110×) | ddCTP/(Dye)-ddCTP (ratio of incorporation rates, preference for unlabeled ddCTP) ([1]; listed as FAM-ddCTP (propargyl-2-ethoxyamido linker)) | ddCTP/(Dye)-ddCTP (ratio of incorporation rates, preference for unlabeled ddCTP) ([1]; listed as FAM-ddCTP (propargylamido linker))
Nc1nc(=O)n(C2CCC(COP(=O)(O)OP(=O)(O)OP(=O)(O)O)O2)cc1C#CCOCCNC(=O)c1ccc2c(c1)C(=O)OC21c2ccc(O)cc2Oc2cc(O)ccc21 (stereo not shown) [(6-FAM)-propargyl-1-ethoxyamido-C] | 19× | 19 × | 504 | 0.436 | 50 pmol | six-fold | five-fold | 9 | 9 |  |  | 
Nc1nc(=O)n(C2CCC(COP(=O)(O)OP(=O)(O)OP(=O)(O)O)O2)cc1C#CCOCCOCCNC(=O)c1ccc2c(c1)C(=O)OC21c2ccc(O)cc2Oc2cc(O)ccc21 (stereo not shown) [(6-FAM)-propargyl-2-ethoxyamido-C] | 110× |  |  |  |  |  |  | 45 |  | about 2 fold | 110 × | 
Nc1nc(=O)n(C2CCC(COP(=O)(O)OP(=O)(O)OP(=O)(O)O)O2)cc1C#CCNC(=O)c1ccc2c(c1)C(=O)OC21c2ccc(O)cc2Oc2cc(O)ccc21 (stereo not shown) [(6-FAM)-propargylamido-C, reference compound] | 65× |  | 1800 | 0.533 | 250 pmol |  |  | 55 | 55 |  |  | 65 ×
Nc1ccn([C@H]2CC[C@@H](COP(=O)(O)OP(=O)(O)OP(=O)(O)O)O2)c(=O)n1 [Unlabeled terminator, 2′,3′-ddCTP, reference compound] |  |  |  |  |  |  |  | 1 | 1 |  |  | 
